Consider four molecules from US4629740A, “Anticonvulsant agents” (Eli Lilly and Company, priority 1984, dated 1986).

The test system of data set [1] is Cox standard strain albino male mice (extensor tonic convulsions). In words: electroshock induced convulsion inhibition assay (E.S.). The conditions noted are these: for ED50: Mus musculus, po, 1 h, by gavage, 60 minutes before 0.1 second, 50 milliampere corneal electroshock, inhibition of extensor tonic convulsions in one half of mice. In kind it is in vivo. As for the experimental part:
(§1) In the electroshock induced convulsion inhibition assay (E.S.), the compound to be tested was dissolved in water (5%--sufficient hydrochloric acid was added for those compounds which were not isolated as a salt in order to effect dissolution) and administered by gavage to each of three Cox standard strain albino male mice (18-24 g.) at the dose level being investigated. Sixty minutes after compound administration, the mice were subjected to a 0.1 second, 50 milliampere electroshock through corneal electrodes. The animals were examined and evaluated immediately after the electroshock for the occurrence of clonic, flexor tonic, or extensor tonic convulsions, or death and the ED50 was determined for each compound as the dose which inhibited the occurrence of extensor tonic convulsions in one half of the animals immediately after the electroshock. For comparison, 18 milliamperes was usually sufficient to produce extensor tonic convulsions in about half of the control animals; at 50 milliamperes, almost all control animals (receiving vehicle only) died.

The nature of a further data set: in vivo. Also on record: species or system mice. The conditions noted are these: mouse, po. As for the experimental part: (§2) The compounds were also evaluated for determining toxic potential. In determining toxic potential as manifested by neurological deficit, ataxia, or sedation, the "horizontal screen" (H.S.) was employed. This test is well accepted as a measure of impaired motor function in mice. The methodology was identical to that taught by Coughenour, et al., Pharmacology, Biochemistry and Behavior, 6, 351 (1977). For each compound, the ED50 was determined as the dose which caused one half of the animals to fail to reach the top of the screen. The compounds were administered to the mice in the same manner as described above for the electroshock assay 60 minutes before they were tested in the horizontal screen assay.

Data set [2] can be described thus: protective index (P.I.), ratio of horizontal screen ED50 over electroshock ED50. In kind it is in vivo, mice. Particulars: mouse, in vivo, po; mice, gavage; read-out: Protective Index (H.S. ED50 /E.S. ED50). The procedure: as §1, §2
(§3) From the above two test systems, the protective index (P.I.) can be calculated as the ratio of the horizontal screen ED50 over the ED50 of the electroshock assay. Thus, a large P.I. is indicative of a broader therapeutic range. A large P.I. thus provides a wide margin of safety allowing greater flexibility in treating epilepsy and other convulsive disorders.

In data set [3] the test system is maximal electroshock seizure. The conditions noted are these: racemic form; reported in U.S. Pat. No. 4,379,165; cited from earlier work.
Another data set deals with mice. Nature of the data set: protective index (P.I.), ratio of horizontal screen ED50 over electroshock ED50. In kind it is in vivo. The conditions noted are these: enantiomers compared with each other or the racemate. The procedure: as §1, §2, §3
The test system of another data set is seizures in man. Particulars: cited from earlier work.

Consider `CC(NC(=O)c1ccc(N)cc1)c1ccccc1` (racemic) [(R,S), (R,S)-4-amino-N-(1-phenylethyl)benzamide], for which the ED50 (usually the dose at which the effect has come halfway, by size or by number of responders) in data set [1] was found to be 12.5 mg/kg. In addition, the TD50 at 1 h in “in vivo” stood at 105 mg/kg. Also, in data set [2], the selectivity ratio at 1 h came out at 8.4. For the same molecule, the “protective index (P.I.), TD50 (Rotorod) to ED50 (maximal electroshock seizure)” value in data set [3] is given as 9.48.

With `C[C@@H](NC(=O)c1ccc(N)cc1)c1ccccc1` [(R), (R)-4-amino-N-(1-phenylethyl)benzamide], the ED50 in data set [1] came out at 17.8 mg/kg. In the data set “in vivo”, this molecule registered a TD50 at 1 h of 480 mg/kg. Moreover, in data set [2], the selectivity ratio at 1 h was 27. In addition, the “protective index (in words)” value in the data set with mice is on record as “increased protective index ratio”.

Consider `C[C@H](NC(=O)c1ccc(N)cc1)c1ccccc1` [(S), (S)-4-amino-N-(1-phenylethyl)benzamide], for which the “anticonvulsant potency (in words)” value in data set [1] ((S)-isomer compared with (R)-isomer and racemate) is listed as “more potent as an anticonvulsant agent than either the (R)-isomer or the racemate”. This molecule registered an ED50 in data set [1] of 10 mg/kg. In addition, in “in vivo”, the TD50 at 1 h was found to be 141 mg/kg. In data set [2], the selectivity ratio at 1 h stood at 14.1.

For the molecule `O=C1NC(=O)C(c2ccccc2)(c2ccccc2)N1` [phenytoin], the “plasma level at which seizures are controlled” value in the data set on seizures in man (Gilman, Goodman, and Gilman, 6th Ed.) was at least 10 µg/mL. Besides, in the data set with seizures in man, the “plasma level at which ataxia is obvious” value was 30000 ng/mL, the “plasma level at which lethargy is apparent” value was “about 40 mcg./ml” and the “plasma level at which nystagmus is seen” value is on record as “around 20 mcg./ml”.
